Measurements from patent US11965100B2, “Aggregation-induced emission luminogens useful for cancer cell discrimination and monitoring” (The Hong Kong University of Science and Technology, priority 2020, dated 2024).

Assays:
A549 cells [1] = assay: Cytotoxicity by standard MTT assay; type: cell-based, human; conditions: summary statement
Protocol: (§1) FIG. 22 (A) Two-photon microscopy images of live HeLa cells stained with 2 μM IVP-02 for 30 min. λex=800 nm, λem=495-540 nm. Scale bar=20 μm. (B) Viability of A549 cells after incubation with IVP-02, 04, 06, 22, 42, and 62 at different concentrations for 24 h.
The potential long-term cytotoxicity of bioprobes should be carefully considered for imaging in live cells. Then we studied the cytotoxicity of these IVP molecules to live A549 cells by standard MTT assay. […] While the incubation concentration is 10 μM, the cell viability was between 60% and 80%, showing certain cytotoxicity. Nonetheless, all cell imaging experiments in this work were conducted at low concentration 2 μM, which is reasonable and acceptable.

[2] = test system: A549 co-cultured with COS7 cells, HeLa co-cultured with COS7 cells; assay: CCCP treatment of cancer cells co-cultured with normal cells; type: cell-based; conditions: A549 or HeLa with COS7, 2 μM, 20 μM CCCP added then removed
Protocol: (§2) FIG. 15 Live A549 cells (A) and live A549 co-cultured with COS 7 cells, live HeLa co-cultured with COS7 cells (B) were pre-stained with 2 μM IVP-02 for 30 min, and treated with 20 μM CCCP for 5 min. Then CCCP was removed away and fresh culture medium was added for another 5 min. λex=488 nm, λem=500-650 nm. Scale bar=20 μm.
To test whether IVP-02 could selectively stain cancer cells and monitor their viability, cancer cells and normal cells were co-cultured and stained with IVP-02. […] After CCCP was removed, the fluorescence in nucleolus disappeared, while the fluorescence in mitochondria recovered gradually. […] The same experiments were also carried out in HeLa cells co-cultured with COS7 cells shown in FIG. 15B and similar phenomena were observed.

A549 and HLF cells = assay: CLSM imaging of A549 and HLF cells seeded on different cover glasses in the same dish; type: cell-based, human; conditions: 2 μM, 30 min
Protocol: FIG. 5 CLSM images of live cancer cells (A549 and HeLa) co-cultured with normal cells (COS7 and HLF) (A), and the images of A549 and HLF cells seeded on different cover glasses (Scale bar=20 μm) (B) stained with 2 μM IVP-02 for 30 min (Scale bar=50 μm), respectively. λex=488 nm, λem=500-650 nm.
FIG. 10 CLSM images of live cancer cells (A549) co-cultured with normal cells (COS7) (A), and the images of A549 and HLF cells seeded on different cover glasses Scale bar=20 μm (B) stained with 2 μM IVP-02, 04, 06, 22, 42, and 62 for 30 min Scale bar=50 μm, respectively. (The first column in B is the same as FIG. 3B) λex=488 nm, λem=500-650 nm.
(§3) The bioimaging properties of IVP-02 in live cells were investigated by confocal laser scanning microscopy (CLSM). Cancer cells (A549 and HeLa) and normal cells (COS7 and HLF) were stained with IVP-02, respectively. […] So IVP-02 holds the high potential to differentiate cancer and normal cells. To verify this speculation, cancer and normal cells were co-cultured and stained with IVP-02. […] To precisely confirm the selectivity of IVP-02 to cancer cells, cancer cells A549 and normal cells HLF (A549 and HLF are both human lung cells) were seeded on different cover glasses, respectively. Then the two cover glasses were put in the same dish and stained with IVP-02 at the same time.
Cancer cells A549 co-cultured with normal cells COS7 were stained with these molecules, respectively. […] Then HeLa cells co-cultured with COS7 cells (FIG. 11), and A549 cells co-cultured with HLF cells (FIG. 12) were also stained with these molecules, the results were similar with that in A549 cells co-cultured with COS7 cells. In addition to co-culturing, A549 cells and HLF cells were also seeded on different cover glasses and stained with these molecules. […] Based on the imaging results above, it can be concluded that the selectivity of these IVP molecules to cancer cells is also based on the length of alkyl chain at pyridinium salt side. Lengthening the alkyl chain at the pyridinium salt side will eliminate the selectivity to cancer cells.

[3] = test system: cancer cells (A549 and HeLa) and normal cells (COS7 and HLF); assay: CLSM imaging of separately stained cancer and normal cells; type: cell-based; conditions: 2 μM, 30 min, same staining and imaging conditions
Protocol: FIG. 4 CLSM images of live cancer cells (A549 and HeLa) and normal cells (COS7 and HLF) stained with 2 μM IVP-02 for 30 min, respectively. λex=488 nm, λem=500-650 nm. Scale bar=20 μm.
as §3

HeLa cells = assay: Two-photon imaging in live cells; type: cell-based; conditions: 2 μM, 30 min, λex 800 nm
Protocol: as §1
Given the high two-photon absorption cross section values of IVP-02 excited by 800 nm, we performed in vitro two-photon imaging of IVP-02 in live HeLa cells.

A549 cells [4] = assay: Mitochondrion-nucleolus migration on CCCP treatment, A549 cells; type: cell-based, human
Protocol: as §2
FIG. 18 Live A549 cells were pre-stained with 2 μM IVP-04, 22, 42, 06, 62 for 30 min, and treated with 20 μM CCCP for 5 min. Then CCCP was removed away and fresh culture medium was added for another 5 min, respectively. λex=488 nm, λem=500-650 nm. Scale bar=20 μm.
Monitoring cell viability is a highly valuable task for the fundamental researches in biology, pathology, and medicine. Then we investigated whether IVP-02 could monitor cell viability. Δψm is a very important indicator to characterize cell viability. With the loss of cell viability, Δψm would decrease, while with the recovery of cell viability, Δψm would also recover to the normal level. […] Carbonyl cyanide m-chlorophenyl hydrazone (CCCP) is a type of protonophore and can cause rapid acidification of mitochondria by collapsing Δψm. Cancer cells A549 were pre-stained with IVP-02 for 30 min. In FIG. 15A, in the beginning, IVP-02 stained mitochondria clearly. […] Hydrogen peroxide (H2O2) can inhibit the oxidation respiratory chain that would cause the loss of cell viability. Then live A549 and HeLa cells were pre-stained with IVP-02, and treated with 10 mM H2O2.
In addition to IVP-02, we further investigated whether other IVP molecules could monitor the viability of cancer cells through mitochondrion-nucleolus migration was investigated. A549 cells were pre-stained with IVP-04, 22, 42, 06, and 62, respectively, and then CCCP was added.

Compound: CC[n+]1ccc(/C=C/c2c[nH]c3ccccc23)cc1 [IVP-02]
- cytotoxicity (A549 cells [1]): low cytotoxicity
- selective staining and viability monitoring in co-cultured cells [2]: could selectively stain cancer cells and monitor their viability through mitochondrion-nucleolus migration
- staining of A549 and HLF cells on different cover glasses (A549 and HLF cells): only A549 cells on the upper cover glass were illuminated
- fluorescence intensity in normal cells versus cancer cells [3]: much weaker than that in cancer cells
- two-photon fluorescence imaging (HeLa cells): bright two-photon fluorescence
- migration back to mitochondria after removal of CCCP (A549 cells [4]; A549, CCCP removed, fresh medium 5 min): migrated back to mitochondria
- migration from mitochondria to nucleolus after addition of CCCP (A549 cells [4]; A549, pre-stained 2 μM 30 min, 20 μM CCCP 5 min): released from mitochondria and migrated to nucleolus
